Several values for one entry are separate records, joined by “and”; a condition that tells them apart may be missing. Equal values may be shown once.
Assays:
Type in all cases: cell-based, C57BL/6 mice
astrocyte [1] = assay: N-AS generation in primary cultured cells (LC-MS/MS); parameters: dose or concentration left out as unconfirmed; details: Ab, replicates
Protocol: (§1) Reactions were quenched by adding equal volume of cold methanol. A 100 μl aliquot of the reaction mixture was mixed with 30 μl of distilled water containing 5 ng ml^−1 of furosemide (internal standard) for 1 min and vigorously mixed with […] of ethyl acetate for 20 min. After centrifugation at 16,000×g for 10 min, the mixtures were kept for 2 h for freezing aqueous phase. The upper ethyl acetate layer was transferred to a clean tube and evaporated to dryness under a gentle stream of nitrogen. Then, the dried extract was reconstituted in 100 µl of mobile phase and 10 µl aliquot of the solution was injected into an Agilent 6470 Triple Quad LC–MS/MS system (Agilent, Wilmington, DE) coupled with an Agilent 1260 HPLC system. […] Quantification was carried out using multiple reaction monitoring (MRM) at m/z 340.3→263.3 for N-AS and m/z 328.9→284.8 for furosemide (internal standard) in negative ionization mode and collision energy of 20 eV. […]
(§2) To confirm the generation and roles of N-AS in neurons, cells from E18 C57BL/6 mice were prepared as previously described. […] Aβ 1–42 (10 μM, 24 h, Invitrogen, 03112) was exposed to neurons and the cells were analyzed for the generation and roles of N-AS. […]

microglia = assay: as above; parameters: dose or concentration left out as unconfirmed; details: Ab, replicates
Protocol: as §1, §2

astrocyte [2] = assay: western blotting for ac-S565 and total COX2 in primary cells; details: Ab 10mM, replicates
Protocol: To confirm the generation and roles of N-AS in neurons, cells from E18 C57BL/6 mice were prepared as previously described. Cortices were dissected and then dissociated followed by incubation in papain (Worthington) at 37 °C for 15 min. Neurons were plated on poly-L-lysine-coated coverslips with neuronal culture medium, serum-free Neurobasal medium (Gibco) containing 2% B27 supplements (Gibco), 1 mM Glutamax supplement (Gibco), and 100 U ml^−1 streptomycin/ 100 U ml^−1 penicillin (Gibco) at 37 °C in a humidified atmosphere of 5% CO2. Aβ 1–42 (10 μM, 24 h, Invitrogen, 03112) was exposed to neurons and the cells were analyzed for the generation and roles of N-AS. Primary astrocyte cultures were prepared from C57BL/6 mice as described previously. In brief, after removal of the meninges, postnatal day 7 (P7) mouse brain tissues were minced and incubated in a rocking water bath at 37 °C for 30 min in the presence of 0.25% trypsin-EDTA (Sigma-Aldrich). […] The human microglia treated with Aβ 1–42 and/or zileuton was incubated with N-AS (2.5 μM, 2 h, Sigma-Aldrich, 01912), and were analyzed for the generation and roles of N-AS.
Samples were lysed in RIPA buffer (Cell signaling Technologies), then subjected to SDS-PAGE and transferred to a nitrocellulose membrane. […] We performed densitometric quantification using the ImageJ software (National Institutes of Health). […]

Ab: Aβ 1–42 (Invitrogen, 03112) used to induce an AD environment in cells
N-AS quantification (Fig 3a) (astrocyte [1]): 0.05349 and 0.0246 and 0.05789 and 0.03905 and 0.04125 and 0.04847
N-AS quantification (Fig 3a) (microglia): 1.15 and 1.365 and 1.237 and 1.2575 and 1.301 and 1.247
ac-S565 / total COX2, western blotting (Fig 3b) (astrocyte [2]): 0.1055 and 0.07523 and 0.08324 and 0.06718 and 0.09034 and 0.07923
